Reference: patent US9908912B2, “Triclosan derivatives and uses thereof” (priority 2012, dated 2018)

Columns and labels:
[1] = tested on: Aeromonas hydrophila OCC 778; assay: MIC in Nutrient Broth No. 2; format: cell-based; settings: Nutrient Broth No. 2
Method: (§1) Bacteria species as indicated in Table 1 were incubated for approximately 24 hours at 37° C.
(§2) The tests were repeated with the addition of inducers. Methyl glycoside was the main inducer used, but other suitable inducers include isopropyl-β-D-thiogalactopyranoside, p-nitrophenyl-α-L-arabinopyranoside and p-nitrophenyl-β-D-xylopyranoside. Concentration of inducer in all cases was 100 μg/ml.

[2] = tested on: Serratia marcescens OCC 217; assay: MIC in Nutrient Broth No. 2; format: cell-based; settings: Nutrient Broth No. 2
Method: as §1, §2

Salmonella [3] = assay: MIC in Nutrient Broth No. 2; format: cell-based; settings: 11 strains; Nutrient Broth No. 2; with inducer 100 μg/ml
Method: as §1, §2

[4] = tested on: Bacillus subtilis NCTC 10073; assay: MIC in Nutrient Broth No. 2; format: cell-based; settings: Nutrient Broth No. 2
Method: as §1, §2

Proteus vulgaris OCC 195 = assay: MIC in Nutrient Broth No. 2; format: cell-based; settings: Nutrient Broth No. 2
Method: as §1, §2

[5] = tested on: Proteus mirabilis ATCC 12453; assay: MIC in Nutrient Broth No. 2; format: cell-based; settings: Nutrient Broth No. 2
Method: as §1, §2

[6] = tested on: Enterobacter aerogenes ATCC 13048; assay: MIC in Nutrient Broth No. 2; format: cell-based; settings: Nutrient Broth No. 2
Method: as §1, §2

[7] = tested on: Ps. Aeruginosa ATCC 27853; assay: MIC in Nutrient Broth No. 2; format: cell-based; settings: Nutrient Broth No. 2
Method: as §1, §2

[8] = tested on: Enterococcus faecalis ATCC 29212; assay: MIC in Nutrient Broth No. 2; format: cell-based; settings: Nutrient Broth No. 2
Method: as §1, §2

[9] = tested on: Bacillus cereus ATCC 14579; assay: MIC in Nutrient Broth No. 2; format: cell-based; settings: Nutrient Broth No. 2
Method: as §1, §2

Hafnia alvei ATCC 13337 = assay: MIC in Nutrient Broth No. 2; format: cell-based; settings: Nutrient Broth No. 2
Method: as §1, §2

Escherichia coli = assay: MIC in Nutrient Broth No. 2; format: cell-based; settings: 8 strains, Nutrient Broth No. 2
Method: as §1, §2

[10] = tested on: Citrobacter freundii OCC 851; assay: MIC in Nutrient Broth No. 2; format: cell-based; settings: Nutrient Broth No. 2
Method: as §1, §2

[11] = tested on: Strep. pyogenes ATCC 19615; assay: MIC in Nutrient Broth No. 2; format: cell-based, Streptococcus pyogenes; settings: Nutrient Broth No. 2
Method: as §1, §2

Str. agalactiae = assay: MIC in Nutrient Agar; format: cell-based, Streptococcus agalactiae; settings: Nutrient Agar containing 0.1 μg/ml of inducer; 37° C., 24 hours
Method: (§3) The triclosan-glycosides were added to Nutrient Agar (Oxoid CM0003; Thermofisher Scientific) and organisms were transferred onto the plates surface using a multi-point inoculation device (Oxoid Cathra, Thermofisher Scientific). The latter is essentially a metal plate containing a number of needles. Each needle tip (usually 36 per plate) dips into an organism suspension (in phosphate buffered saline; PBS) and the needles are then moved over the agar plate and lowered onto its surface. In this way the growth of colonies of up to 36 different organisms can be observed on one plate.
(§4) Nutrient Agar No. 2 was prepared according to the manufacturers instructions, autoclaved and cooled to 50° C. Test compounds were then added as filter sterilised solutions (50:50 deionised water:ethanol), to give final concentrations from 256 μg/ml to 0 μg/ml in doubling dilutions. […] The mixtures were swirled then four plates (25 ml molten agar) were poured for each concentration. Plates were dried in a laminar flow cabinet then inoculated with overnight cultures of organisms that had been decimally diluted twice in sterile saline solution (approximately 10^7 cfu/ml) using a multi-point inoculator. Plates were then incubated at 37° C. for 24 hours. MICs were determined as the concentration at which no growth was observed.

Ser. marcescens = assay: MIC in Nutrient Agar; format: cell-based, Serratia marcescens; settings: Nutrient Agar containing 0.1 μg/ml of inducer; 37° C., 24 hours
Method: as §3, §4

C. freundii = assay: MIC in Nutrient Agar; format: cell-based, Citrobacter freundii; settings: Nutrient Agar containing 0.1 μg/ml of inducer; 37° C., 24 hours
Method: as §3, §4

Ps. aeruginosa = assay: MIC in Nutrient Agar; format: cell-based; settings: Nutrient Agar containing 0.1 μg/ml of inducer; 37° C., 24 hours
Method: as §3, §4

Bacillus subtilis = assay: MIC in Nutrient Agar; format: cell-based; settings: Nutrient Agar containing 0.1 μg/ml of inducer; 37° C., 24 hours
Method: as §3, §4

Salmonella [12] = assay: MIC in Nutrient Agar; format: cell-based; settings: 11 strains; Nutrient Agar containing 0.1 μg/ml of inducer; 37° C., 24 hours
Method: as §3, §4

Hafnia alvei = assay: MIC in Nutrient Agar; format: cell-based; settings: Nutrient Agar containing 0.1 μg/ml of inducer; 37° C., 24 hours
Method: as §3, §4

Bacillus cereus = assay: MIC in Nutrient Agar; format: cell-based; settings: Nutrient Agar containing 0.1 μg/ml of inducer; 37° C., 24 hours
Method: as §3, §4

E. hermanii ATCC 33650 = assay: MIC in Nutrient Broth No. 2; format: cell-based, Escherichia hermanii; settings: Nutrient Broth No. 2
Method: as §1, §2

Kleb. aerogenes = assay: MIC in Nutrient Agar; format: cell-based, Klebsiella aerogenes; settings: Nutrient Agar containing 0.1 μg/ml of inducer; 37° C., 24 hours
Method: as §3, §4

Staph. aureus = assay: MIC in Nutrient Broth No. 2; format: cell-based, Staphylococcus aureus; settings: 8 strains, Nutrient Broth No. 2
Method: as §1, §2

[13] = tested on: Kleb. aerogenes NCTC 88167; assay: MIC in Nutrient Broth No. 2; format: cell-based, Klebsiella aerogenes; settings: Nutrient Broth No. 2
Method: as §1, §2

[14] = tested on: Staph. haemolyticus OCC 2223; assay: MIC in Nutrient Broth No. 2; format: cell-based, Staphylococcus haemolyticus; settings: Nutrient Broth No. 2
Method: as §1, §2

S. haemolyticus = assay: MIC in Nutrient Agar; format: cell-based, Staphylococcus haemolyticus; settings: Nutrient Agar containing 0.1 μg/ml of inducer; 37° C., 24 hours
Method: as §3, §4

[15] = tested on: Strep. agalactiae OCC 182; assay: MIC in Nutrient Broth No. 2; format: cell-based, Streptococcus agalactiae; settings: Nutrient Broth No. 2
Method: as §1, §2

S. saprophyticus = assay: MIC in Nutrient Agar; format: cell-based, Staphylococcus saprophyticus; settings: Nutrient Agar containing 0.1 μg/ml of inducer; 37° C., 24 hours
Method: as §3, §4

Str. pyogenes = assay: MIC in Nutrient Agar; format: cell-based, Streptococcus pyogenes; settings: Nutrient Agar containing 0.1 μg/ml of inducer; 37° C., 24 hours
Method: as §3, §4

Str. viridans = assay: MIC in Nutrient Agar; format: cell-based, Streptococcus viridans; settings: Nutrient Agar containing 0.1 μg/ml of inducer; 37° C., 24 hours
Method: as §3, §4

Ent. cloacae ATCC 13047 = assay: MIC in Nutrient Broth No. 2; format: cell-based, Enterobacter cloacae; settings: Nutrient Broth No. 2
Method: as §1, §2

Measured: MIC

OC[C@H]1O[C@@H](Oc2cc(Cl)ccc2Oc2ccc(Cl)cc2Cl)[C@H](O)[C@@H](O)[C@@H]1O [β-D-Glucoside, triclosan-β-D-glucopyranoside]
0.5 to 2 µg/mL: Staph. aureus; with inducer 100 μg/ml
>256 µg/mL: [1]; without inducer | [2]; with inducer 100 μg/ml | [2]; without inducer | [7]; with inducer 100 μg/ml | [7]; without inducer | Str. agalactiae | Ser. marcescens | Ps. aeruginosa
2 µg/mL: [5]; with inducer 100 μg/ml | E. hermanii ATCC 33650; with inducer 100 μg/ml
2 to 8 µg/mL: Salmonella [3]
8 µg/mL: Proteus vulgaris OCC 195; with inducer 100 μg/ml | [10]; with inducer 100 μg/ml | Hafnia alvei
4 to 8 µg/mL: Staph. aureus; without inducer
4 µg/mL: Hafnia alvei ATCC 13337; without inducer | [13]; with inducer 100 μg/ml
128 µg/mL: [8]; with inducer 100 μg/ml | [9]; with inducer 100 μg/ml | [15]; with inducer 100 μg/ml
16 µg/mL: [5]; without inducer | [6]; with inducer 100 μg/ml | [8]; without inducer | [11]; with inducer 100 μg/ml | E. hermanii ATCC 33650; without inducer | [14]; without inducer | S. haemolyticus | Ent. cloacae ATCC 13047; without inducer
32 µg/mL: [4]; with inducer 100 μg/ml | [11]; without inducer | Kleb. aerogenes | [13]; without inducer | S. saprophyticus
1 µg/mL: Ent. cloacae ATCC 13047; with inducer 100 μg/ml
8 to 64 µg/mL: Escherichia coli; without inducer
16 to 128 µg/mL: Salmonella [12]
256 µg/mL: [1]; with inducer 100 μg/ml | [4]; without inducer | [9]; without inducer | Bacillus subtilis | Bacillus cereus | [15]; without inducer | Str. viridans
1 to 8 µg/mL: Escherichia coli; with inducer 100 μg/ml
64 µg/mL: Proteus vulgaris OCC 195; without inducer | [6]; without inducer | [10]; without inducer | C. freundii | Str. pyogenes
0.5 µg/mL: Hafnia alvei ATCC 13337; with inducer 100 μg/ml | [14]; with inducer 100 μg/ml
